# Source: PubChem BioAssay (NCI)
#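 Grown in 96-well plates, cells were treated for 48 hours with each compound at five concentrations. Insufficient inhibition: endpoint recorded as highest concentration tested. TGI: concentration producing complete growth inhibition.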
# Tests used:
# Experiment in all cases: growth of human tumour cells (NCI), 48 h
# UACC-257 melanoma = tested on: UACC-257 melanoma
# RXF 393 renal = tested on: RXF 393 renal
# UO-31 renal = tested on: UO-31 renal
# NCI-H23 lung = tested on: NCI-H23 lung
# HCT-116 colon = tested on: HCT-116 colon
# CAKI-1 renal = tested on: CAKI-1 renal
# NCI/ADR-RES ovarian = tested on: NCI/ADR-RES ovarian
# 786-0 renal = tested on: 786-0 renal
# K-562 leukemia = tested on: K-562 leukemia
# OVCAR-8 ovarian = tested on: OVCAR-8 ovarian
# HCC-2998 colon = tested on: HCC-2998 colon
# SK-MEL-2 melanoma = tested on: SK-MEL-2 melanoma
# SF-268 CNS = tested on: SF-268 CNS
# LOX IMVI melanoma = tested on: LOX IMVI melanoma
# OVCAR-3 ovarian = tested on: OVCAR-3 ovarian
# NCI-H226 lung = tested on: NCI-H226 lung
# A549 NSCLC = tested on: A549 NSCLC
# MOLT-4 leukemia = tested on: MOLT-4 leukemia
# HOP-62 NSCLC = tested on: HOP-62 NSCLC
Compound,TGI (UACC-257 melanoma) [µM],TGI (RXF 393 renal) [µM],TGI (UO-31 renal) [µM],TGI (NCI-H23 lung) [µM],TGI (HCT-116 colon) [µM],TGI (CAKI-1 renal) [µM],TGI (NCI/ADR-RES ovarian) [µM],TGI (786-0 renal) [µM],TGI (K-562 leukemia) [µM],TGI (OVCAR-8 ovarian) [µM],TGI (HCC-2998 colon) [µM],TGI (SK-MEL-2 melanoma) [µM],TGI (SF-268 CNS) [µM],TGI (LOX IMVI melanoma) [µM],TGI (OVCAR-3 ovarian) [µM],TGI (NCI-H226 lung) [µM],TGI (A549 NSCLC) [µM],TGI (MOLT-4 leukemia) [µM],TGI (HOP-62 NSCLC) [µM]
O=C(Nc1cccc(NC(=O)C(=O)C2CCC3=C(Sc4ccccc4N3)C2=O)n1)C(=O)C1CCC2=C(Sc3ccccc3N2)C1=O (stereo not drawn),> 100,> 100,> 100,> 100,> 100,> 100,> 100,> 100,> 100,> 100,> 100,> 100,> 100,> 100,> 100,> 100,> 100,> 100,–
C=C1[C@H](OC(=O)C(C)C)[C@@H](OC(C)=O)[C@@H](OC(C)=O)C(C)(C)[C@@H]2O[C@H]2[C@@H](C)C(=O)[C@@]2(OC(C)=O)C[C@@](C)(OC(C)=O)[C@H](OC(C)=O)[C@@H]2[C@H]1OC(C)=O,> 100,–,> 100,> 100,> 100,> 100,> 100,> 100,> 100,> 100,> 100,> 100,> 100,> 100,> 100,> 100,> 100,> 100,> 100
CC(C)(C)OC(=O)[C@@H]1CCC(=S)N1Cc1ccccc1,> 100,> 100,> 100,> 100,> 100,> 100,> 100,> 100,> 100,> 100,> 100,> 100,–,> 100,> 100,> 100,> 100,> 100,–
CN(C)C(=S)N1C(=S)N(c2ccccc2)C(=Nc2ccccc2)C1=Nc1ccccc1,> 100,> 100,> 100,> 100,> 100,> 100,> 100,> 100,> 100,> 100,> 100,> 100,> 100,> 100,–,> 100,> 100,> 100,> 100
C=CC(CBr)CCC(Br)C(C)(C)Br (stereo not drawn),> 10,> 10,> 10,> 10,> 10,> 10,> 10,> 10,> 10,> 10,> 10,> 10,> 10,–,> 10,> 10,> 10,> 10,> 10
C=C(C)CNC(=S)N(N)c1ccc(OC)cc1,> 100,> 100,> 100,> 100,> 100,–,> 100,> 100,> 100,> 100,> 100,–,> 100,> 100,> 100,> 100,> 100,> 100,> 100
CC1(C)Oc2ccc3c(=O)c(-c4ccccc4)c(-c4ccccc4)oc3c2C1C(=O)O (stereo not drawn),> 100,> 100,–,> 100,> 100,> 100,> 100,> 100,> 100,> 100,> 100,> 100,> 100,–,> 100,> 100,> 100,> 100,> 100
